Test results taken from ChEMBL document CHEMBL3885861, “Open TG-GATES”.

Species on record: Rattus norvegicus
Assay: Open TG-GATES - Regimen: Daily Repeat
Type: toxicity, organism-based, Sprague-Dawley
Design: regimen Daily Repeat, gender Male, age 6 weeks
Details: in vivo, po, 0 mg/kg, route gavage, dose level Control; for APTT / Bas / Eos / Fbg / Hb / Ht / Lym / MCH / MCHC / MCV / Mono / Neu / PT / Plat / RBC / Ret / WBC: tissue Blood
[1] = 72 h, tissue Kidney, time 3 day
[2] = 72 h, tissue Plasma, time 3 day

`COC(=O)C1=C(C)NC(C)=C(C(=O)OC)C1c1ccccc1[N+](=O)[O-]` [NIFEDIPINE] was tested, and the TERMINAL_BW (72 h, time 3 day) was 227.8 g, the APTT (72 h, time 3 day) was 16.7 s and the Bas (72 h, time 3 day) was 0.4%. For the same molecule, the Eos (72 h, time 3 day) was 1%, the Fbg (72 h, time 3 day) was 313.6 mg/dL and the Hb (72 h, time 3 day) was 13.4 g/dL. For the same molecule, the Ht (72 h, time 3 day) was 41.3%, the Lym (72 h, time 3 day) was 80.2% and the MCH (72 h, time 3 day) was 20.8 pg. For the same molecule, the MCHC (72 h, time 3 day) was 32.5%, the MCV (72 h, time 3 day) was 64.2 fL and the Mono (72 h, time 3 day) was 3.2%. For the same molecule, the Neu (72 h, time 3 day) was 14%, the PT (72 h, time 3 day) was 14.5 s and the Plat (72 h, time 3 day) was 122.9 x10_4/uL. For the same molecule, the RBC (72 h, time 3 day) was 643.8 x10_4/ul, the Ret (72 h, time 3 day) was 7.5% and the WBC (72 h, time 3 day) was 94.6 x10_2/uL. The KIDNEY_L [1] was 1 g, the KIDNEY_R [1] was 1 g and the KIDNEY_TOTAL [1] was 2 g. It also gave an LIVER (72 h, tissue Liver, time 3 day) of 10.4 g, an ALP [2] of 1654.8 IU/L and an ALT [2] of 47.6 IU/L. It also gave an AST [2] of 71.4 IU/L, a BUN [2] of 14 mg/dL and a CRE [2] of 0.2 mg/dL. For the same molecule, the Ca [2] was 11.1 mg/dL, the Cl [2] was 106 meq/L and the DBIL [2] was 0.014 mg/dL. For the same molecule, the GLC [2] was 179.2 mg/dL, the IP [2] was 7.7 mg/dL and the K [2] was 4.2 meq/L. For the same molecule, the LDH [2] was 85.4 IU/L, the Na [2] was 144.8 meq/L and the PL [2] was 162 mg/dL. The RALB [2] was 2.7 g/dL, the TBIL [2] was 0.028 mg/dL and the TC [2] was 83.8 mg/dL. For the same molecule, the TG [2] was 109.2 mg/dL, the TP [2] was 5.8 g/dL and the gamma-GTP [2] was 1 IU/L. The TERMINAL_BW ([…], time 7 day) was 262.8 g, the TERMINAL_BW ([…], time 14 day) was 320 g and the TERMINAL_BW ([…], time 28 day) was 416 g. It also gave an APTT ([…], time 7 day) of 16.1 s, a Bas ([…], time 7 day) of 0.4% and an Eos ([…], time 7 day) of 1.4%. For the same molecule, the Fbg ([…], time 7 day) was 286.6 mg/dL, the Hb ([…], time 7 day) was 13.7 g/dL and the Ht ([…], time 7 day) was 42%. The Lym ([…], time 7 day) was 75.8%, the MCH ([…], time 7 day) was 21 pg and the MCHC ([…], time 7 day) was 32.7%. It also gave an MCV ([…], time 7 day) of 64.1 fL, a Mono ([…], time 7 day) of 3% and a Neu ([…], time 7 day) of 18.2%. The PT ([…], time 7 day) was 14.2 s, the Plat ([…], time 7 day) was 133.6 x10_4/uL and the RBC ([…], time 7 day) was 656.4 x10_4/ul. For the same molecule, the Ret ([…], time 7 day) was 5.7%, the WBC ([…], time 7 day) was 100.3 x10_2/uL and the APTT ([…], time 14 day) was 18.1 s. For the same molecule, the Bas ([…], time 14 day) was 0%, the Eos ([…], time 14 day) was 1% and the Fbg ([…], time 14 day) was 320.8 mg/dL. The Hb ([…], time 14 day) was 14.8 g/dL, the Ht ([…], time 14 day) was 44.1% and the Lym ([…], time 14 day) was 79.2%. It also gave an MCH ([…], time 14 day) of 20.6 pg, an MCHC ([…], time 14 day) of 33.5% and an MCV ([…], time 14 day) of 61.3 fL. The Mono ([…], time 14 day) was 3%, the Neu ([…], time 14 day) was 15.6% and the PT ([…], time 14 day) was 14.2 s. For the same molecule, the Plat ([…], time 14 day) was 117.8 x10_4/uL, the RBC ([…], time 14 day) was 720.2 x10_4/ul and the Ret ([…], time 14 day) was 4.2%. It also gave a WBC ([…], time 14 day) of 101 x10_2/uL, an APTT ([…], time 28 day) of 16.7 s and a Bas ([…], time 28 day) of 0.4%. It also gave an Eos ([…], time 28 day) of 1% and a Fbg ([…], time 28 day) of 313.6 mg/dL.
